The results in this text go back to BindingDB's records for doi:10.1124/jpet.102.040162 (Sanofi-SynthÉLabo Recherche, 2002).

The structures appear in SMILES notation. Values joined by “and” are separate entries in the source; they are usually repeats but may differ in a detail not shown here. Identical values can stand only once. Square brackets hold non-standard residues; d marks the D form. Peptide text beside a SMILES is read from it. NMeF = CN[C@@H](Cc1ccccc1)C(=O)O

For orientation: Ki means a dissociation constant, usually derived from enzyme kinetics or from competition with a known ligand. Read a low Ki as tighter binding.

For test [1], the target named is T1, Neuromedin-K receptor (Cavia porcellus, UniProt P30098).
T1 sequence (P30098 whole entry): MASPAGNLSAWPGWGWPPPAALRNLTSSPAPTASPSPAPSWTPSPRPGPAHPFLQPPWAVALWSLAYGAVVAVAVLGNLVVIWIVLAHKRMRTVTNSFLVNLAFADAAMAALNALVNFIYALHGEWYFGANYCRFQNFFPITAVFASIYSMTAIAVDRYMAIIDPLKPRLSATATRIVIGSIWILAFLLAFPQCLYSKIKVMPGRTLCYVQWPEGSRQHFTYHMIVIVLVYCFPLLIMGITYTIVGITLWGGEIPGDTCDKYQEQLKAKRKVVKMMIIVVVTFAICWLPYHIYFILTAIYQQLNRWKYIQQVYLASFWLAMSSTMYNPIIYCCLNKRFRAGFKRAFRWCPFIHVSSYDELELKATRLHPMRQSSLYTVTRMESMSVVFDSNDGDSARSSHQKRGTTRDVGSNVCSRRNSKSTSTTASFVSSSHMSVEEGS

Test [2] deals with T2, Neuromedin-K receptor (Homo sapiens, UniProt P29371).
T2 sequence (P29371 whole entry): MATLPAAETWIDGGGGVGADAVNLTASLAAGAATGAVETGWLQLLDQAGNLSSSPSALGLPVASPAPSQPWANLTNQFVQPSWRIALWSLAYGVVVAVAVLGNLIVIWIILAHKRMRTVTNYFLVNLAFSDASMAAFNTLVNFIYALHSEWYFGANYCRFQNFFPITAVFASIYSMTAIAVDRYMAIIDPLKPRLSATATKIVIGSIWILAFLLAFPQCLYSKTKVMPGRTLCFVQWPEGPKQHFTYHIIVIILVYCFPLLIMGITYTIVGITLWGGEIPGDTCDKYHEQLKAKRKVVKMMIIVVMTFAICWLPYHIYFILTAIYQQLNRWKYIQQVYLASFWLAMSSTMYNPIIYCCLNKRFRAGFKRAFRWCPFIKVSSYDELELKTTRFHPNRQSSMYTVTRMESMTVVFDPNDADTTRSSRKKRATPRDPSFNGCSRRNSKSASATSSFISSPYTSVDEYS

Test [3] deals with T3, Neuromedin-K receptor (Meriones unguiculatus, UniProt Q2YHR0).
T3 sequence (Q2YHR0 whole entry): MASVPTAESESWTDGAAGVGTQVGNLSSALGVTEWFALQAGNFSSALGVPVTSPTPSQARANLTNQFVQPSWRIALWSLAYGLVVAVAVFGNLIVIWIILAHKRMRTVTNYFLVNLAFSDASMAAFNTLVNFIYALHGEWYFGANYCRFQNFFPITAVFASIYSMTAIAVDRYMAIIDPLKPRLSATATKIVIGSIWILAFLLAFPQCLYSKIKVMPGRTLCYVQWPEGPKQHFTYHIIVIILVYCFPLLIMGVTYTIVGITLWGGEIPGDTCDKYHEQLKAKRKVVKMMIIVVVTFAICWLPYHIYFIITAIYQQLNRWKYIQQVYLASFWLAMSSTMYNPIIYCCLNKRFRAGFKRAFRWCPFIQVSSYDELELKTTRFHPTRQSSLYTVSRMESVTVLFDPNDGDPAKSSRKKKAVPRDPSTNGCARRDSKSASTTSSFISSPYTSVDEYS

Test [4] addresses T4, Neuromedin-K receptor (Mus musculus, UniProt P47937).
T4 sequence (P47937 whole entry): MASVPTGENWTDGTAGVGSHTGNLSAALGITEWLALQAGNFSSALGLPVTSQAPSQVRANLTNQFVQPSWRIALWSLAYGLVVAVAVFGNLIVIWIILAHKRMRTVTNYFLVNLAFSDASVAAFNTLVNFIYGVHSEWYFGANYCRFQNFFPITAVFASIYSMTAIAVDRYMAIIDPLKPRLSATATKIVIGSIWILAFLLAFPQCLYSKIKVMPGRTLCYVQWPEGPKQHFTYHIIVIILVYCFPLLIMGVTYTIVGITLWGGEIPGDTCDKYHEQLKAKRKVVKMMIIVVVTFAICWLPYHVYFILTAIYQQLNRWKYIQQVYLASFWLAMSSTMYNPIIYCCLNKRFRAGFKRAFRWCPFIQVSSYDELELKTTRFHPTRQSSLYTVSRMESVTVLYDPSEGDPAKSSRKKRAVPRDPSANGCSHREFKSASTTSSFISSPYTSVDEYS

Test [5] addresses T5, Substance-K receptor (Homo sapiens, UniProt P21452).
T5 sequence (P21452 whole entry): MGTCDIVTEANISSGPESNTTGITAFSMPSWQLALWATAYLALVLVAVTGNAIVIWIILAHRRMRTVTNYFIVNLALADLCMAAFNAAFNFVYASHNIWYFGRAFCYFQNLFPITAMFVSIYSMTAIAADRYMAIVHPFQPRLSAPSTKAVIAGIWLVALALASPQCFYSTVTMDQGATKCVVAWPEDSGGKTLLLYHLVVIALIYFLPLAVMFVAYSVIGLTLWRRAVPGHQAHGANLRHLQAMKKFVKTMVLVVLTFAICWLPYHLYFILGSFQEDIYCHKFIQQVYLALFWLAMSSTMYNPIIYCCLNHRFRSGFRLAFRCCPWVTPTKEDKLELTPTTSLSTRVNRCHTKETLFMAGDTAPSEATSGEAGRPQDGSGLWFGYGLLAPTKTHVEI

Test [6] addresses T6, Substance-K receptor (Cavia porcellus, UniProt Q64077).
T6 sequence (Q64077 whole entry): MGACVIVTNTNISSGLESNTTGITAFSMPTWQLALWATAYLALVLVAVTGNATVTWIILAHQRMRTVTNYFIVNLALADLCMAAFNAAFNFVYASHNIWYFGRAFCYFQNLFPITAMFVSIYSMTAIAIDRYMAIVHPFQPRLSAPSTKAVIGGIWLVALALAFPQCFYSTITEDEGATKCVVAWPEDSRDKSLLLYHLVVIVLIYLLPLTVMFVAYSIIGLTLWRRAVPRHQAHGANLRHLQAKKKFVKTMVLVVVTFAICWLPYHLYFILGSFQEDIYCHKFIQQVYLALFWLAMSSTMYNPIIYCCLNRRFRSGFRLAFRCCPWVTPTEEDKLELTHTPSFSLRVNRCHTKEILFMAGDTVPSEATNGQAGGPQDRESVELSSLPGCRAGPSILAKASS

Test [7] concerns the target T7, Substance-K receptor (Rattus norvegicus, UniProt P16610).
T7 sequence (P16610 whole entry): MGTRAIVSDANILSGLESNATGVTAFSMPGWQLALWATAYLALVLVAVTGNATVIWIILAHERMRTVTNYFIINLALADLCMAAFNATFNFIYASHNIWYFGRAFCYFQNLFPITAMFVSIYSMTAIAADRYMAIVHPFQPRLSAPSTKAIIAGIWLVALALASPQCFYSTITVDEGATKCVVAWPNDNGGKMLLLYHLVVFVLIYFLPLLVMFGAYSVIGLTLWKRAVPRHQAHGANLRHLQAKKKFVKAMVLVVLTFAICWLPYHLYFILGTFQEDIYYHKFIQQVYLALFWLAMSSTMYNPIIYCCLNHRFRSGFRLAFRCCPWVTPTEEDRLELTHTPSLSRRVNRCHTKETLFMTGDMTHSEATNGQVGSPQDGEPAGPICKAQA

The target of test [8] is Substance-P receptor (Rattus norvegicus, UniProt P14600).
Substance-P receptor (Rattus norvegicus, UniProt P14600), sequence (P14600 whole entry): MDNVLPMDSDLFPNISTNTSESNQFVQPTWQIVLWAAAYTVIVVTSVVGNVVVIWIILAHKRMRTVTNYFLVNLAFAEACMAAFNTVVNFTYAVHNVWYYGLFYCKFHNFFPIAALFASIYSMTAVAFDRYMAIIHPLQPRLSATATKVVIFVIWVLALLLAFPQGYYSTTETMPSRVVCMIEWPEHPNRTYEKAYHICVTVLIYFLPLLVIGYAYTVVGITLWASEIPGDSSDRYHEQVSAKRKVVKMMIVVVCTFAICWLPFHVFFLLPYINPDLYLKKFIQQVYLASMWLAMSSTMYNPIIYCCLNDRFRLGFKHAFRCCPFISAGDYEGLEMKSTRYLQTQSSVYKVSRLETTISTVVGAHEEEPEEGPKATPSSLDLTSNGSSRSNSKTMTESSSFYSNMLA
For test [9], the target named is Substance-P receptor (Cavia porcellus, UniProt P30547).
Substance-P receptor (Cavia porcellus, UniProt P30547), sequence (P30547 whole entry): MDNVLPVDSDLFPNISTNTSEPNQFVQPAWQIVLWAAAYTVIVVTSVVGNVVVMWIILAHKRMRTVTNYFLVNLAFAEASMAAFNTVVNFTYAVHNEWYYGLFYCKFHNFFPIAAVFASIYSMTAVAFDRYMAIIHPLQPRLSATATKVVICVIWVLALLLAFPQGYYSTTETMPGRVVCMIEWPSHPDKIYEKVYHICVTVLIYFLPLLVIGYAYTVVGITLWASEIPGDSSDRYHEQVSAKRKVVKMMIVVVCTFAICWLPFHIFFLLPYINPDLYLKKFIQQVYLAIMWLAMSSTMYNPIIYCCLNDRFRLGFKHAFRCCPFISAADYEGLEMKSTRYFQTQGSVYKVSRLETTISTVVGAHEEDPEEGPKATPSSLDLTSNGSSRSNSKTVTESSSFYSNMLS

Regarding `CSCC[C@H](NC(=O)[C@H](CC(C)C)NC(=O)CNC(=O)[C@H](Cc1ccccc1)N(C)C(=O)[C@H](Cc1ccccc1)NC(=O)[C@H](Cc1ccccc1)NC(=O)[C@H](CC(=O)O)NC(=O)[C@H](Cc1cnc[nH]1)NC(=O)[C@H](CCSC)NC(=O)[C@@H](N)CC(=O)O)C(N)=O` [NKB [MePhe7]] (H-DMHDFF[NMeF]GLM-NH2), the inhibition constant Ki worked out at 0.43 nM on Neuromedin-K receptor [1], 0.34 nM on Neuromedin-K receptor [2], 0.16 nM at Neuromedin-K receptor [3] and 0.053 nM on Neuromedin-K receptor [4].
For the molecule `CC(C)(C(N)=O)C1CCN(CCC2(c3ccc(Cl)c(Cl)c3)CN(C(=O)Cc3cc(C(F)(F)F)cc(C(F)(F)F)c3)CCO2)CC1` (centres undefined) [SSR240600], the Ki on Neuromedin-K receptor [1] is 21 nM; at Substance-K receptor [5], 24 nM; at Substance-K receptor [6] it was 71 nM; at Neuromedin-K receptor [2] it was 206 nM; at Substance-K receptor [7], 34 nM; at Neuromedin-K receptor [3] it was 544 nM. Moreover, the Ki at Substance-P receptor [8] was 1.07 nM and 1.15 nM; on Neuromedin-K receptor [4] it was greater than 10000 nM; on Substance-P receptor [9], 0.23 nM.
With `CSCC[C@H](NC(=O)[C@H](CC(C)C)NC(=O)CNC(=O)[C@@H](NC(=O)[C@H](Cc1ccccc1)NC(=O)[C@H](CO)NC(=O)[C@H](CC(=O)O)NC(=O)[C@@H](NC(=O)[C@H](CCCCN)NC(=O)[C@@H](N)Cc1cnc[nH]1)[C@@H](C)O)C(C)C)C(N)=O` [Neurokinin alpha], the Ki on Substance-K receptor [6] is 2.3 nM.
